From article PMC9516332 (Frontiers in Oncology, 2022)
Read-outs that look alike come from different tables or passages of the source.

Experiments:
AP-1060 (ETV6-NTRK3) = assay: Cell viability assay; settings: read-out: IC50 in cell proliferation assay
134 cancer cell lines = assay: Cell viability assay (ATPlite, 72 hours), IC50 on cancer cell line panel

## COc1cc(N2CCC(N3CCN(C)CC3)CC2)ccc1Nc1ncc(Cl)c(Nc2ccccc2P(C)(C)=O)n1 [brigatinib]
AP-1060 (ETV6-NTRK3)
  IC50: 2400 nM
134 cancer cell lines; HEC-6, read-out: IC50 in cell proliferation assay
  IC50: 5210 nM
134 cancer cell lines; Homo sapiens, 769-P, read-out: IC50 in cell proliferation assay
  IC50: 1910 nM
134 cancer cell lines; Homo sapiens, 786-0, read-out: IC50 in cell proliferation assay
  IC50: 2070 nM
134 cancer cell lines; Homo sapiens, A 172, read-out: IC50 in cell proliferation assay
  IC50: 888 nM
134 cancer cell lines; Homo sapiens, A204, read-out: IC50 in cell proliferation assay
  IC50: 1270 nM
134 cancer cell lines; Homo sapiens, A498, read-out: IC50 in cell proliferation assay
  IC50: 1860 nM
134 cancer cell lines; Homo sapiens, A549, read-out: IC50 in cell proliferation assay
  IC50: 893 nM
134 cancer cell lines; Homo sapiens, A704, read-out: IC50 in cell proliferation assay
  IC50: 3590 nM
134 cancer cell lines; Homo sapiens, A-375, read-out: IC50 in cell proliferation assay
  IC50: 719 nM
134 cancer cell lines; Homo sapiens, A-427, read-out: IC50 in cell proliferation assay
  IC50: 448 nM
134 cancer cell lines; Homo sapiens, ACHN, read-out: IC50 in cell proliferation assay
  IC50: 894 nM
134 cancer cell lines; Homo sapiens, AN3-CA, read-out: IC50 in cell proliferation assay
  IC50: 1860 nM
134 cancer cell lines; Homo sapiens, ASPC1, read-out: IC50 in cell proliferation assay
  IC50: 809 nM
134 cancer cell lines; Homo sapiens, AU565, read-out: IC50 in cell proliferation assay
  IC50: 2580 nM
134 cancer cell lines; Homo sapiens, BT-20, read-out: IC50 in cell proliferation assay
  IC50: 4210 nM
134 cancer cell lines; Homo sapiens, BT-474, read-out: IC50 in cell proliferation assay
  IC50: 7880 nM
134 cancer cell lines; Homo sapiens, BT-549, read-out: IC50 in cell proliferation assay
  IC50: 3010 nM
134 cancer cell lines; Homo sapiens, BXPC-3, read-out: IC50 in cell proliferation assay
  IC50: 619 nM
134 cancer cell lines; Homo sapiens, C-33-A, read-out: IC50 in cell proliferation assay
  IC50: 527 nM
134 cancer cell lines; Homo sapiens, CAL-27, read-out: IC50 in cell proliferation assay
  IC50: 673 nM
134 cancer cell lines; Homo sapiens, CCF-STTG1, read-out: IC50 in cell proliferation assay
  IC50: 3440 nM
134 cancer cell lines; Homo sapiens, CCRF-CEM, read-out: IC50 in cell proliferation assay
  IC50: 3600 nM
134 cancer cell lines; Homo sapiens, COLO 205, read-out: IC50 in cell proliferation assay
  IC50: 998 nM
134 cancer cell lines; Homo sapiens, COLO-829, read-out: IC50 in cell proliferation assay
  IC50: 2560 nM
134 cancer cell lines; Homo sapiens, DLD-1, read-out: IC50 in cell proliferation assay
  IC50: 4720 nM
134 cancer cell lines; Homo sapiens, DU-145, read-out: IC50 in cell proliferation assay
  IC50: 667 nM
134 cancer cell lines; Homo sapiens, DU-4475, read-out: IC50 in cell proliferation assay
  IC50: 1790 nM
134 cancer cell lines; Homo sapiens, Daoy, read-out: IC50 in cell proliferation assay
  IC50: 3070 nM
134 cancer cell lines; Homo sapiens, DoTc2-4510, read-out: IC50 in cell proliferation assay
  IC50: 270 nM
134 cancer cell lines; Homo sapiens, EOL1, read-out: IC50 in cell proliferation assay
  IC50: 50 nM
134 cancer cell lines; Homo sapiens, FaDu, read-out: IC50 in cell proliferation assay
  IC50: 971 nM
134 cancer cell lines; Homo sapiens, G-361, read-out: IC50 in cell proliferation assay
  IC50: 9280 nM
134 cancer cell lines; Homo sapiens, HCC827, read-out: IC50 in cell proliferation assay
  IC50: 129 nM
134 cancer cell lines; Homo sapiens, HCC4006, read-out: IC50 in cell proliferation assay
  IC50: 152 nM
134 cancer cell lines; Homo sapiens, HCT-15, read-out: IC50 in cell proliferation assay
  IC50: 3770 nM
134 cancer cell lines; Homo sapiens, HCT-116, read-out: IC50 in cell proliferation assay
  IC50: 1690 nM
134 cancer cell lines; Homo sapiens, HEC-1, read-out: IC50 in cell proliferation assay
  IC50: 1810 nM
134 cancer cell lines; Homo sapiens, HEC-1B, read-out: IC50 in cell proliferation assay
  IC50: 367 nM
134 cancer cell lines; Homo sapiens, HL-60, read-out: IC50 in cell proliferation assay
  IC50: 1110 nM
134 cancer cell lines; Homo sapiens, HT, read-out: IC50 in cell proliferation assay
  IC50: 4540 nM
134 cancer cell lines; Homo sapiens, HT-1080, read-out: IC50 in cell proliferation assay
  IC50: 1660 nM
134 cancer cell lines; Homo sapiens, Hs746T, read-out: IC50 in cell proliferation assay
  IC50: 2140 nM
134 cancer cell lines; Homo sapiens, Hs-578T, read-out: IC50 in cell proliferation assay
  IC50: 1390 nM
134 cancer cell lines; Homo sapiens, HuTu80, read-out: IC50 in cell proliferation assay
  IC50: 451 nM
134 cancer cell lines; Homo sapiens, J82, read-out: IC50 in cell proliferation assay
  IC50: 1880 nM
134 cancer cell lines; Homo sapiens, Jurkat E6.1, read-out: IC50 in cell proliferation assay
  IC50: 4380 nM
134 cancer cell lines; Homo sapiens, K562, read-out: IC50 in cell proliferation assay
  IC50: 2740 nM
134 cancer cell lines; Homo sapiens, KATO III, read-out: IC50 in cell proliferation assay
  IC50: 211 nM
134 cancer cell lines; Homo sapiens, KG-1, read-out: IC50 in cell proliferation assay
  IC50: 243 nM
134 cancer cell lines; Homo sapiens, KLE, read-out: IC50 in cell proliferation assay
  IC50: 553 nM
134 cancer cell lines; Homo sapiens, KMS-11, read-out: IC50 in cell proliferation assay
  IC50: 430 nM
134 cancer cell lines; Homo sapiens, KU812, read-out: IC50 in cell proliferation assay
  IC50: 1390 nM
134 cancer cell lines; Homo sapiens, Kasumi 1, read-out: IC50 in cell proliferation assay
  IC50: 207 nM
134 cancer cell lines; Homo sapiens, LC-2-ad, read-out: IC50 in cell proliferation assay
  IC50: 334 nM
134 cancer cell lines; Homo sapiens, LNCaP-Clone-FGC, read-out: IC50 in cell proliferation assay
  IC50: 689 nM
134 cancer cell lines; Homo sapiens, LS174T, read-out: IC50 in cell proliferation assay
  IC50: 1330 nM
134 cancer cell lines; Homo sapiens, LS-411N, read-out: IC50 in cell proliferation assay
  IC50: 1760 nM
